Test results from patent US20220112515A1, “Method for Producing Virus-Infected Cell Line and Animal Model” (INDUSTRY-ACADEMIC COOPERATION FOUNDATION, YONSEI UNIVERSITY, priority 2018, published 2022).

Columns and labels:
HepG2 cell line [1] = assay: HBV infection of HepG2 cell line with tCDCA-mixed HBV; type: cell-based, human; conditions: HBV mixed with 100 μmol/L tCDCA
Protocol: (§1) In addition, […] was performed using an anti-HBcAg antibody, to measure a level of HBcAg present. Specifically, 100 μl/well of anti-HBcAg antibody (10E11) (cat no. MA1-7608; Thermo Fisher, USA) was added to a micro ELISA plate, and the reaction was allowed to proceed at 4° C. overnight. Then, 200 μl/well of 1× ELISA/ELISPOT Diluent (Invitrogen, USA) was additionally added thereto, and the reaction was allowed to proceed for 1 hour. Each of the HBV-infected cell lines produced was dispensed into each well, in which the reaction had been completed, and the reaction was allowed to proceed for 2 hours. Then, the anti-HBcAg antibody (10E11) diluted in a ratio of 1:30 with 100 μl of 1× ELISA/ELISPOT Diluent was added to the plate, and the reaction was allowed to proceed for 1 hour. Then, the additional reaction with 100 μl of HRP-conjugated anti-rabbit IgG was allowed to proceed for 30 minutes. Here, as a positive control, PLC/PRF5 cell line (human liver-derived cell line that releases HBV surface antigen) was used, and levels of HBsAg and HBcAg present therein were measured.

Huh-7 cell line [2] = assay: HBV infection of Huh-7 cell line with tCDCA-mixed HBV; type: cell-based, human; conditions: HBV mixed with 100 μmol/L tCDCA
Protocol: as §1

A498 cell line [3] = assay: HBV infection of A498 cell line with tCDCA-mixed HBV; type: cell-based, human; conditions: HBV mixed with 100 μmol/L tCDCA
Protocol: as §1

MDA-MB-231 cell line [4] = assay: HBV infection of MDA-MB-231 cell line with tCDCA-mixed HBV; type: cell-based, human; conditions: HBV mixed with 100 μmol/L tCDCA
Protocol: as §1

Jurkat cell line [5] = assay: HBV infection of Jurkat cell line with tCDCA-mixed HBV; type: cell-based, human; conditions: HBV mixed with 100 μmol/L tCDCA
Protocol: as §1

HeLa cell line = assay: HBV infection of HeLa cell line with tCDCA-mixed HBV; type: cell-based, human; conditions: HBV mixed with 100 μmol/L tCDCA
Protocol: as §1

Hepa1c1c7 cell line [6] = assay: HBV infection of Hepa1c1c7 cell line with tCDCA-mixed HBV; type: cell-based, mouse; conditions: HBV mixed with 100 μmol/L tCDCA
Protocol: as §1

H4-II-E cell line [7] = assay: HBV infection of H4-II-E cell line with tCDCA-mixed HBV; type: cell-based, rat; conditions: HBV mixed with 100 μmol/L tCDCA
Protocol: as §1

RAG cell line = assay: HBV infection of RAG cell line with tCDCA-mixed HBV; type: cell-based, mouse; conditions: HBV mixed with 100 μmol/L tCDCA
Protocol: as §1

EL4 cell line [8] = assay: HBV infection of EL4 cell line with tCDCA-mixed HBV; type: cell-based, mouse; conditions: HBV mixed with 100 μmol/L tCDCA
Protocol: as §1

LC540 cell line [9] = assay: HBV infection of LC540 cell line with tCDCA-mixed HBV; type: cell-based, rat; conditions: HBV mixed with 100 μmol/L tCDCA
Protocol: as §1

HepG2 cell line [10] = assay: HCV infection of HepG2 cell line with tCDCA-mixed HCV; type: cell-based, human
Huh-7 cell line [11] = assay: HCV infection of Huh-7 cell line with tCDCA-mixed HCV; type: cell-based, human
Protocol: (§5) The levels of HCV core and HCV RNA present were measured in each of the HCV-infected cell lines produced and the culture medium collected therefrom. Specifically, measurement of HCV RNA was performed by requesting a specialized inspection agency (Biogeno Korea Co., Ltd., Korea) that utilizes the Roche's COBAS TaqMan system. Here, as a control, a group treated with only HCV without a bile acid derivative was used.

A549 cell line = assay: HCV infection of A549 cell line with tCDCA-mixed HCV; type: cell-based, human
A498 cell line [12] = assay: HCV infection of A498 cell line with tCDCA-mixed HCV; type: cell-based, human
MDA-MB-231 cell line [13] = assay: HCV infection of MDA-MB-231 cell line with tCDCA-mixed HCV; type: cell-based, human
Jurkat cell line [14] = assay: HCV infection of Jurkat cell line with tCDCA-mixed HCV; type: cell-based, human
Protocol: as §5

EL4 cell line [15] = assay: HCV infection of EL4 cell line with tCDCA-mixed HCV; type: cell-based, mouse
Protocol: as §5

LC540 cell line [16] = assay: HCV infection of LC540 cell line with tCDCA-mixed HCV; type: cell-based, rat
Protocol: as §5

H4-II-E cell line [17] = conditions: HCV mixed with tCA
Description: (§2) For production of enveloped virus-infected cell line models, HBV (1×10^6 copies/ml/well of HBV) isolated in Example 1 above was mixed with 100 μmol/L of taurochenodeoxycholic acid (hereinafter referred to as ‘tCDCA’), and HCV (1×10^6 IU/ml/well of HCV) isolated in Example 1 above was mixed with tCDCA or taurocholic acid (hereinafter referred to as ‘tCA’). Here, tCA was mixed with HCV and used to infect mouse hepatocytes; and tCDCA was used in all other cases.
(§3) A cell line (HepG2, Huh-7, A549, A-498, MDA-MB-231, Jurkat, HeLa, Hepa1c1c7, EL4, H4-II-E, LA-4, LC540, or RAG cell line) at 5×10^6 cells/ml was dispensed into each well of a 6-well plate, and culture was performed for 24 hours. Then, the tCDCA or tCA solution mixed with HBV or HCV was added thereto, and culture was further performed for 24 hours. Here, as a control, a group, to which only HBV or HCV was added without the tCDCA or tCA solution, was used. […] Finally, the cell culture medium was treated with 100 μmol/L of tCDCA or tCA, and culture was further performed for 3 days, thereby producing a virus-infected cell line model (hereinafter referred to as “infected cell line”).
(§4) The levels of HCV core and HCV RNA present were measured in each of the HCV-infected cell lines produced and the culture medium collected therefrom. […]

Hepa1c1c7 cell line [18] = conditions: HCV mixed with tCA (mouse hepatocytes)
Description: as §2, §3, §4

Structure (SMILES): C[C@H](CCC(=O)NCCS(=O)(=O)O)[C@H]1CC[C@H]2[C@@H]3[C@H](O)C[C@@H]4C[C@H](O)CC[C@]4(C)[C@H]3CC[C@]12C [tCDCA, taurochenodeoxycholic acid]
- HBV DNA (copies/ml) (HepG2 cell line [1]): 3,590,000 ± 1,010,000 copies/ml
- HBsAg (Index) (HepG2 cell line [1]): 474.70 ± 176.30 Index
- HBcAg (Index) (HepG2 cell line [1]; FACS): 61.6%
- HBV DNA (copies/ml) (Huh-7 cell line [2]): 89,000 ± 1,836 copies/ml
- HBsAg (Index) (Huh-7 cell line [2]): 26.02 ± 5.97 Index
- HBcAg (Index) (Huh-7 cell line [2]; FACS): 69.8%
- HBV DNA (copies/ml) (A498 cell line [3]): 73,500 ± 23,292 copies/ml
- HBsAg (Index) (A498 cell line [3]): 5.12 ± 0.19 Index
- HBcAg (Index) (A498 cell line [3]; FACS): 67.1%
- HBV DNA (copies/ml) (MDA-MB-231 cell line [4]): 116 copies/ml
- HBsAg (Index) (MDA-MB-231 cell line [4]): 169 Index
- HBcAg (Index) (MDA-MB-231 cell line [4]; FACS): 87.4%
- HBV DNA (copies/ml) (Jurkat cell line [5]): 868,000 ± 88,963 copies/ml
- HBsAg (Index) (Jurkat cell line [5]): 1081 ± 329 Index
- HBcAg (Index) (Jurkat cell line [5]; FACS): 37.5%
- HBV DNA (copies/ml) (HeLa cell line): 359 copies/ml
- HBsAg (Index) (HeLa cell line): 61.35 Index
- HBcAg (Index) (HeLa cell line; FACS): 89.6%
- HBV DNA (copies/ml) (Hepa1c1c7 cell line [6]): 7,036,667 copies/ml
- HBsAg (Index) (Hepa1c1c7 cell line [6]): 508.26 ± 107.6 Index
- HBcAg (Index) (Hepa1c1c7 cell line [6]; FACS): 77.1%
- HBV DNA (copies/ml) (H4-II-E cell line [7]): 73,000 ± 51,929 copies/ml
- HBsAg (Index) (H4-II-E cell line [7]): 22.73 ± 4.39 Index
- HBcAg (Index) (H4-II-E cell line [7]; FACS): 32.6%
- HBV DNA (copies/ml) (RAG cell line): 11,700 (622, 000) copies/ml
- HBsAg (Index) (RAG cell line): 21 (744) Index
- HBcAg (Index) (RAG cell line; FACS): 76.6%
- HBV DNA (copies/ml) (EL4 cell line [8]): 673,000 ± 60,053 copies/ml
- HBsAg (Index) (EL4 cell line [8]): 192.7 ± 30.60 Index
- HBcAg (Index) (EL4 cell line [8]; FACS): 66.9%
- HBV DNA (copies/ml) (LC540 cell line [9]): 149,000 ± 29,866 copies/ml
- HBsAg (Index) (LC540 cell line [9]): 3.06 ± 0.44 Index
- HCV RNA (IU/ml) (HepG2 cell line [10]): 85.233 IU/ml
- HCV RNA (IU/ml) (Huh-7 cell line [11]): 628.066 IU/ml
- HCV RNA (IU/ml) (A549 cell line): 4550 IU/ml
- HCV RNA (IU/ml) (A498 cell line [12]): 610 IU/ml
- HCV RNA (IU/ml) (MDA-MB-231 cell line [13]): 605 IU/ml
- HCV RNA (IU/ml) (Jurkat cell line [14]): 3326.667 IU/ml
- HCV RNA (IU/ml) (EL4 cell line [15]): 1669 IU/ml
- HCV RNA (IU/ml) (LC540 cell line [16]): 21.7 IU/ml

Structure (SMILES): C[C@H](CCC(=O)NCCS(=O)(=O)O)[C@H]1CC[C@H]2[C@@H]3[C@H](O)C[C@@H]4C[C@H](O)CC[C@]4(C)[C@H]3C[C@H](O)[C@]12C [tCA, taurocholic acid]
- HCV RNA (IU/ml) (H4-II-E cell line [17]): 197.33 IU/ml
- HCV RNA (IU/ml) (Hepa1c1c7 cell line [18]): 3430 IU/ml
